Here are results for eight molecules from PubChem BioAssay (NCI).

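96-well plates; 48 h exposure; 5 concentrations. Endpoints by linear interpolation between flanking doses. Not reached: highest tested concentration assigned. TGI: total growth inhibition.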 A value given as a limit tells only on which side of the number the result lay.

Some test systems named below: HCC-2998 colon; SR leukemia; T-47D breast; M14 melanoma; 786-0 renal; MDA-MB-231 breast; SK-MEL-2 melanoma; HT29 colon; OVCAR-4 ovarian; UACC-257 melanoma; HCT-116 colon; COLO 205 colon; MCF7 breast; UACC-62 melanoma; A498 renal; MDA-N; MALME-3M melanoma; CCRF-CEM leukemia; NCI-H522 lung.
What all share (experiment): inhibition of tumour cell growth, NCI panel, 48 h

Turning to `COc1cc(C(=O)C2C(=O)c3ccccc3C2C2(O)c3ccccc3CC2C(O)c2cc(OC)c(OC)c(OC)c2)cc(OC)c1OC` (configuration not stated), the TGI in the experiment on HCC-2998 colon, in the experiment with SR leukemia, in the experiment with T-47D breast, in the experiment with M14 melanoma, in the experiment with 786-0 renal and in the experiment on MDA-MB-231 breast was over 100 µM each time. In addition, the TGI with SK-MEL-2 melanoma, in the experiment on HT29 colon, in the experiment with OVCAR-4 ovarian, with UACC-257 melanoma, in the experiment on HCT-116 colon and in the experiment with COLO 205 colon was over 100 µM in each case. The TGI with MCF7 breast, in the experiment with UACC-62 melanoma, in the experiment on A498 renal, in the experiment on MDA-N and in the experiment with MALME-3M melanoma was over 100 µM in each case.

As for `CC(C)OP(=O)(OC(C)C)c1ccc2c(c1)OCCOCCOCCOCCO2`, the TGI with CCRF-CEM leukemia, in the experiment with HCC-2998 colon, with SR leukemia, in the experiment on T-47D breast, in the experiment on M14 melanoma and in the experiment on 786-0 renal was over 100 µM each time. Besides, the TGI in the experiment on MDA-MB-231 breast, in the experiment with HT29 colon, in the experiment with UACC-257 melanoma, with HCT-116 colon, in the experiment with NCI-H522 lung and in the experiment with COLO 205 colon was over 100 µM in each case. Besides, the TGI in the experiment on MCF7 breast, in the experiment on UACC-62 melanoma, with A498 renal, in the experiment on MDA-N and in the experiment with MALME-3M melanoma was over 100 µM in each case.

Regarding `COc1ccc(-c2nnc3n(Cc4ccccc4)c4ccccc4n3c2=O)cc1`, the TGI was over 100 µM with CCRF-CEM leukemia; over 100 µM in the experiment with HCC-2998 colon; over 100 µM in the experiment on SR leukemia; over 100 µM in the experiment on T-47D breast; over 100 µM in the experiment with M14 melanoma; 25.1 µM in the experiment with 786-0 renal. Also, the TGI with MDA-MB-231 breast is over 100 µM; in the experiment with SK-MEL-2 melanoma, over 100 µM; with HT29 colon it was over 100 µM; with OVCAR-4 ovarian it was 43.6 µM; with UACC-257 melanoma it was over 100 µM; with HCT-116 colon it was over 100 µM. The TGI in the experiment on NCI-H522 lung is 80.7 µM; in the experiment with COLO 205 colon, over 100 µM; in the experiment with MCF7 breast, over 100 µM; in the experiment with A498 renal, 99.6 µM; with MDA-N, over 100 µM; in the experiment with MALME-3M melanoma, over 100 µM.

For the molecule `NNC1=N/C(=C\c2ccco2)C(=O)N1`, the TGI with HCC-2998 colon, in the experiment with SR leukemia, in the experiment with T-47D breast, in the experiment with M14 melanoma, in the experiment on 786-0 renal and with MDA-MB-231 breast was over 100 µM throughout. The TGI in the experiment with SK-MEL-2 melanoma, in the experiment with HT29 colon, with OVCAR-4 ovarian, with UACC-257 melanoma, in the experiment on HCT-116 colon and in the experiment with NCI-H522 lung was over 100 µM in each case. The TGI in the experiment on COLO 205 colon, in the experiment with MCF7 breast, in the experiment on UACC-62 melanoma, in the experiment on A498 renal, with MDA-N and in the experiment with MALME-3M melanoma was over 100 µM in each case.

Turning to `CC1CCCCN1CC(=O)c1ccc2c(c1)Sc1ccccc1O2` (configuration not stated), the TGI stood at 44.4 µM with CCRF-CEM leukemia; 41.3 µM with HCC-2998 colon; 47.8 µM with SR leukemia; 48 µM in the experiment on T-47D breast; 38.3 µM with M14 melanoma; 31.9 µM with 786-0 renal. Besides, the TGI in the experiment with MDA-MB-231 breast came out at 54.6 µM; in the experiment with SK-MEL-2 melanoma it was 32.4 µM; in the experiment with HT29 colon it was 22.7 µM; in the experiment with OVCAR-4 ovarian, 28.6 µM; with UACC-257 melanoma, 39 µM; with HCT-116 colon, 30.7 µM. In addition, the TGI was over 100 µM in the experiment with COLO 205 colon; 33.6 µM with MCF7 breast; 30.1 µM in the experiment on UACC-62 melanoma; 38.6 µM in the experiment with A498 renal; 32.2 µM in the experiment on MDA-N; 26.8 µM in the experiment on MALME-3M melanoma.

Turning to `Cc1ccc(C2SCC(=O)N2c2ccc(-c3ccc(-n4c(-c5ccccc5)nc5ccccc5c4=O)cc3)cc2)cc1` (configuration not stated), the TGI with CCRF-CEM leukemia, with HCC-2998 colon, with SR leukemia, in the experiment on T-47D breast, in the experiment on M14 melanoma and in the experiment with 786-0 renal was over 100 µM in each case. Besides, the TGI with MDA-MB-231 breast, in the experiment with SK-MEL-2 melanoma, in the experiment on HT29 colon, in the experiment with OVCAR-4 ovarian, in the experiment on UACC-257 melanoma and in the experiment on NCI-H522 lung was over 100 µM in each case. Besides, the TGI in the experiment on COLO 205 colon, in the experiment with MCF7 breast, with UACC-62 melanoma, with A498 renal, in the experiment with MDA-N and in the experiment with MALME-3M melanoma was over 100 µM throughout.

Regarding `S=C(N/N=C/c1ccccn1)Nc1ccc(Cl)cc1`, the TGI is 1.92 µM in the experiment on CCRF-CEM leukemia; over 57.7 µM in the experiment with HCC-2998 colon; over 100 µM with SR leukemia; over 100 µM in the experiment on T-47D breast; 16.1 µM in the experiment on 786-0 renal; over 100 µM in the experiment with MDA-MB-231 breast. In addition, the TGI in the experiment with SK-MEL-2 melanoma was over 100 µM; in the experiment on HT29 colon, over 100 µM; with OVCAR-4 ovarian it was over 100 µM; in the experiment on UACC-257 melanoma it was over 100 µM; in the experiment on HCT-116 colon, over 88.5 µM; in the experiment with NCI-H522 lung it was 0.18 µM. Further, the TGI in the experiment with COLO 205 colon is over 100 µM; in the experiment with MCF7 breast, over 100 µM; in the experiment with UACC-62 melanoma, 1.51 µM; in the experiment with A498 renal, 59.9 µM; in the experiment with MDA-N it was over 100 µM; in the experiment with MALME-3M melanoma it was over 29 µM.

Take `O=C(CC(C(=O)c1cccs1)c1cccs1)c1ccccc1Cl` (configuration not stated): the TGI with CCRF-CEM leukemia, in the experiment on HCC-2998 colon, in the experiment with SR leukemia, in the experiment on T-47D breast, with M14 melanoma and in the experiment with 786-0 renal was over 100 µM in each case. Besides, the TGI in the experiment with MDA-MB-231 breast, in the experiment with SK-MEL-2 melanoma, in the experiment on HT29 colon, with OVCAR-4 ovarian, in the experiment on UACC-257 melanoma and in the experiment with HCT-116 colon was over 100 µM each time. Also, the TGI in the experiment on COLO 205 colon, in the experiment with MCF7 breast, in the experiment on UACC-62 melanoma, in the experiment with A498 renal, with MDA-N and in the experiment with MALME-3M melanoma was over 100 µM each time.
